Measurements reported in patent publication US6943007B2, “Immuno-stimulating polysaccharide substance from Phellinus spp. strain and use thereof” (Korea Institute of Science and Technology, priority 1998, dated 2005).

Assays:
[1] = tested on: B16F10 cutaneous cancer cells; assay: Viability of mice implanted peritoneally with B16F10 cells, immunochemotherapy co-administration (60 days); assay type: in vivo, mouse; details: for body weight during the test: all test groups, alone or in combination, 60-day test; for Proportion (%): untreated = 100
Text: (§1) A homogeneous plantation test system of B16F10 cutaneous cancer cell was utilized for the measurement of the anticancer activity upon co-administration of the polysaccharide substance and adriamycin. The cutaneous cancer cells were implanted in the peritoneal cavity of mice. Adriamycin was peritoneally administrated to the mice for 12 days after tumor implantation while the polysaccharide substance was peritoneally administrated from a week before the implantation to 12 days after the implantation. For 60 days, the viability of the mice was recorded everyday. Adriamycin was used at such low amounts as not to damage the mice.
The cutaneous cancer cells were implanted in the peritoneal cavity of mice. […] For 60 days, the viability of the mice was recorded everyday.
The cutaneous cancer cells were implanted in the peritoneal cavity of mice. […] For 60 days, the viability of the mice was recorded everyday. Cisplastin was used at such low amounts as not to damage the mice.
as §1, with “5-fluoro uracil, as in the above experiments.” for “adriamycin.”, “5-fluoro uracil” for “Adriamycin”

B-cells = assay: B-cell antibody-forming cell method; assay type: cell-based, mice; details: 10 μg/mL
Text: A better understanding of the present invention may be obtained through the following examples which are set forth to illustrate, but are not to be construed as the limit of the present invention. In the following examples, splenocytes taken from B6C3F mice were used for the measurement of the immuno-stimulating activity of the polysaccharide substances isolated from Phellinus linteus Yoo and other Phellinus spp. First, the splenocytes were immunized for 2 days by treatment with the substances and lipopolysaccharide as a positive control. The antibodies formed were measured by a spectrophotometer and considered as a standard for the immuno-stimulating activity. The effect of the polysaccharide substance on the proliferation of T-cells was measured by a mixed lymphocyte response technique. To detect the proliferation of lymphocytes, nuclear DNA which was newly synthesized in lymphocytes was measured by using ^3H-thymidine. In this example, B-cells were counted by use of an antibody-forming cell method and the proliferation of T-cells was measured by a mixed lymphocyte response technique. In addition, in order to detect the effect of the polysaccharide substance on the proliferation of lymphocytes, the nuclear DNA which was newly synthesized was measured by using ^3H-thymidine.

[2] = tested on: NCl-H23 human lung cancer cells; assay: Direct cytotoxicity, sulforhodamin B method; assay type: cell-based; details: 2nd day after treatment
[3] = tested on: NCl-H23 lung cancer cells; assay: Human cancer cells implanted subcutaneously in nude mice; assay type: in vivo
Procedure: The activity of the polysaccharide substance against human cancer was assayed using NCl-H23, a lung cancer cell line. Nude mice were subcutaneously implanted with NCl-H23 lung cancer cells. The polysaccharide substance and adriamycin were peritoneally administrated to the nude mice for 12 days after cancer cell implantation. The size of a mass of the cancer cells was measured and the cancer cells were separated and weighed on the 19th day after cancer cell implantation. Because the nude mice were devoid of T-cells, their immunological competency was generally attributed to the activity of natural killer cells or macrophage cells. Therefore, the immunological enhancement obtained when administrating the polysaccharide substance was meditated through these two type cells.

[4] = tested on: B16F10 cutaneous cancer cells; assay: Lung metastasis of B16F10 cells implanted in tail veins; assay type: in vivo, C57BL/6 mice; details: 14th day
Text: In order to test the polysaccharide substance for the prevention of cancer metastasis, B16F10 cutaneous cancer cells were implanted in the tail veins of C57BL/6 mice. On the 14th day after implantation, the lungs were isolated from the mice to investigate whether or to what extent cancer metastasis occurred. Adriamycin was peritoneally administrated to the mice for 12 days after tumor implantation while the polysaccharide substance was peritoneally administrated from a week before the implantation to 12 days after the implantation.

[5] = tested on: B16F10 mouse cutaneous cancer cells; assay: Direct cytotoxicity, sulforhodamin B method; assay type: cell-based; details: 2nd day after treatment

O=c1[nH]cc(F)c(=O)[nH]1 [5-FU, 5-fluoro uracil]
Nos. of viable mice on the 60th day ([1]; 5-FU 1 mg/kg): 0/10 | Avg. Viability ([1]; 5-FU 1 mg/kg peritoneally for 12 days after implantation): 33.0 days | Nos. of viable mice on the 60th day ([1]; 5-FU 3 mg/kg): 2/10 | body weight during the test [1]: did not lose body weight

lipopolysaccharide [LPS]
B-Cell Antibody-forming (B-cells): 0.81 ± 0.23 Abs 576 nm

CO[C@@]12[C@H](COC(N)=O)C3=C(C(=O)C(C)=C(N)C3=O)N1C[C@@H]1N[C@@H]12 [M.C, Mitomycin C]
Nos. of viable mice on the 60th day ([1]; M.C 0.2 mg/kg): 0/10 | Avg. Viability ([1]; M.C 0.2 mg/kg peritoneally for 12 days after implantation): 32.5 days | Proportion (%) ([1]; M.C 0.2 mg/kg): 179.6% | Avg. Viability ([1]; M.C 0.6 mg/kg): 38.0 days | Nos. of viable mice on the 60th day ([1]; M.C 0.6 mg/kg): 1/10 | Proportion (%) ([1]; M.C 0.6 mg/kg): 209.9%

N.N.[Cl][Pt][Cl] [C.P, Cisplatin]
Nos. of viable mice on the 60th day ([1]; C.P 0.5 mg/kg): 0/10 | Avg. Viability ([1]; C.P 0.5 mg/kg peritoneally for 12 days after implantation): 33.0 days | Avg. Viability ([1]; C.P 0.5 mg/kg peritoneally for 12 days after implantation, listed as Cisplatin): 33 days | Nos. of viable mice on the 60th day ([1]; C.P 1.5 mg/kg): 2/10

COc1cccc2c1C(=O)c1c(O)c3c(c(O)c1C2=O)C[C@@](O)(C(=O)CO)C[C@@H]3O[C@H]1C[C@H](N)[C@H](O)[C@H](C)O1 [Adriamycin, adriamycin]
cell quantity (untreated = 100%) ([2]; 1 μg/mL): 71% | cell quantity (untreated = 100%) ([2]; 3 μg/mL): 39% | cell quantity (untreated = 100%) ([2]; 10 μg/ml): 7% | cell quantity (untreated = 100%) ([2]; 30 μg/mL): −1% | Cell size ([3]; 14th day, Am 1 mg/kg peritoneally for 12 days after implantation): Am^2 (1 mg/kg) 12 mm^3 | Final Cancer Weight ([3]; 19th day after implantation, Adriamycin 1 mg/kg): 95 | body weight of tested mice ([3]; nude mice, all test groups): did not gain or lose body weight | Nos. of Spots (cancer spots on the lungs) ([4]; Adriamycin 1 mg/kg peritoneally for 12 days): 197 | Nos. of Spots (cancer spots on the lungs) ([4]; Adriamycin 3 mg/kg): 172 | Nos. of viable mice on the 60th day ([1]; Am 0.1 mg/kg): 0/10 | Nos. of viable mice on the 60th day ([1]; Am 0.3 mg/kg): 2/10 | body weight during the test [1]: did not lose body weight | cell quantity (untreated = 100%) ([5]; 1 μg/mL): 29% | cell quantity (untreated = 100%) ([5]; 3 μg/mL): 9% | cell quantity (untreated = 100%) ([5]; 10 μg/ml): −10% | cell quantity (untreated = 100%) ([5]; 30 μg/mL): −10%
